Reference: patent publication US10694752B2 (priority 2016, dated 2020)
Values joined by “and” are separate entries in the source; they are usually repeats but may differ in a detail not shown here. Identical values can stand only once.

Experiments:
[1] = tested on: wild type Chlorella sorokiniana; experiment: Growth of wild type Chlorella sorokiniana in the presence of propiconazole (OD at 750 nm); format: cell-based; conditions: 10 μM propiconazole; FIG. 1
Procedure: (§1) Chlorella sorokiniana cells (Wild type) and propiconazole resistant mutants of Chlorella species (PcZ-2) were inoculated at 0.1-0.15 OD@750 nm (each set in triplicates). To verify the effect of methanol (propiconazole was dissolved in methanol), one set was treated with 0.1% methanol. One set of flasks in triplicate of Wild type and PcZ-2 mutants were inoculated with and without 10 μM propiconazole. After inoculation flasks were kept in 12 h light/12 hour dark cycles of white light in an incubator shaker at 100 rpm. The temperature was 28° C., 70% humidity and 2% ambient CO2. 3 mL sample was removed each day, to determine the Optical density (OD) of the culture at 750 nm. The results obtained are as illustrated in FIG. 1.
(§2) FIG. 1 illustrates a graph of the growth comparison between wild type Chlorella sorokiniana and propiconazole resistant Chlorella sorokiniana mutant PcZ-2, in the presence of propiconazole, wherein A represents wild type Chlorella sorokiniana in the absence of propiconazole, B represents wild type Chlorella sorokiniana grown in the presence of 0.1% methanol, C represents wild type Chlorella sorokiniana grown in the presence of 10 μM propiconazole, D represents PcZ-2 grown in the absence of propiconazole, E represents PcZ-2 grown in the presence of 0.1% methanol, and F represents PcZ-2 grown in the presence of 10 μM propiconazole.

[2] = tested on: propiconazole resistant Chlorella sorokiniana mutant PcZ-2 (CCAP 211/134); experiment: Growth of propiconazole resistant mutant PcZ-2 in the presence of propiconazole (OD at 750 nm); format: cell-based; conditions: 10 μM propiconazole; for Average % increase PcZ-2 + 10 uM PcZ: average of triplicates, compared with wild type without propiconazole; for % increase PcZ-2 + 10 μM PcZ: growth of PcZ-2 compared with wild type without propiconazole, individual replicates, 28° C., listed as PcZ
Procedure: as §1, §2

SMILES: CCCC1COC(Cn2cncn2)(c2ccc(Cl)cc2Cl)O1 (centres unmarked) [propiconazole, Propiconazole]
- growth of wild type Chlorella sorokiniana culture in the presence of propiconazole [1]: crashes after a few days
- growth of PcZ-2 in the presence of propiconazole ([2]; FIG. 1): capable of growing
- Average % increase PcZ-2 + 10 uM PcZ ([2]; day 4): 62.66%
- % increase PcZ-2 + 10 μM PcZ ([2]; day 4): 52.73% and 66.67% and 68.57%
- Average % increase PcZ-2 + 10 uM PcZ ([2]; day 6): 20.01%
- % increase PcZ-2 + 10 μM PcZ ([2]; day 6): 13.33% and 28.96% and 17.75%
- Average % increase PcZ-2 + 10 uM PcZ ([2]; day 7): 21.07%
- % increase PcZ-2 + 10 μM PcZ ([2]; day 7): 10.64% and 29.37% and 23.19%
